Laboratory results as given in ChEMBL document CHEMBL3046474, “Development of robust QSAR model using rapid overlay of crystal structures (ROCS) based alignment: a test case of Tubulin inhibitors” (Med Chem Res, 2013).

The compounds below were run against Tubulin (assay: Inhibition of tubulin polymerization in Homo sapiens (human) solid tumor cells).

SMILES	pIC50
COc1ccc(Cc2cc(OC)c(OC)c(OC)c2)cc1O	5.11
COc1ccc(CCCCc2cc(OC)c(OC)c(OC)c2)cc1O	4.26
COc1ccc(/C=C(/C=O)c2cc(OC)c(OC)c(OC)c2)cc1	5.4
COc1ccc(/C=C(/C#N)c2cc(OC)c(OC)c(OC)c2)cc1O	5.3
COc1cc(/C=C\c2ccc(C)c(N)c2)cc(OC)c1OC	5.4
COc1ccc(/C=C(/C#N)c2cc(OC)c(OC)c(OC)c2)cc1N	5
COc1ccc(/C=C(/C#N)c2cc(OC)c(OC)c(OC)c2)cc1	5.22
COc1ccc(CCc2cc(OC)c(OC)c(OC)c2)cc1O	5.48
COc1ccc(/C=C\c2cc(OC)c(OC)c(OC)c2)cn1	5.7
COc1ccc(OCc2cc(OC)c(OC)c(OC)c2)cc1O	4.65
COc1ccc(\C=C/C=C/C=C/c2cc(OC)c(OC)c(OC)c2)cc1O	5
COc1cc(/C=C\c2ccc(C)c(N=[N+]=[N-])c2)cc(OC)c1OC	5.92
COc1ccc(C(O)C(O)c2cc(OC)c(OC)c(OC)c2)cc1O (centres undefined)	4.66
COc1ccc(NCc2cc(OC)c(OC)c(OC)c2)cc1O.Cl	5.05
COc1cc(CNc2ccc(C)c(O)c2)cc(OC)c1OC.Cl	5.46
COc1cc2ccc3cc(O)c(C)cc3c2c(OC)c1OC	4
COc1cc(/C=C\c2cccc(SC)c2)cc(OC)c1OC	5.21

SMILES	pIC50
COc1cc(/C=C\c2ccc(C)cc2)cc(OC)c1OC	5.7
COc1cc(/C=C\c2ccc(N(C)C)cc2)cc(OC)c1OC	5.47
COc1cccc(/C=C\c2cc(OC)c(OC)c(OC)c2)c1	5.06
COc1ccc(/C(C#N)=C\c2cc(OC)c(OC)c(OC)c2)cc1N	5.3
COc1ccc(/C=C(/C(N)=O)c2cc(OC)c(OC)c(OC)c2)cc1N	5.52
COc1cnc(/C=C\c2cc(OC)c(OC)c(OC)c2)cn1	5.05
COc1ncc(/C=C\c2cc(OC)c(OC)c(OC)c2)cn1	5.52
COc1ccc(/C=C\c2cc(OC)c(OC)c(OC)c2)nc1	5.52
COc1ccc(COc2cc(OC)c(OC)c(OC)c2)cc1O	5.46
COc1ccc(Oc2cc(OC)c(OC)c(OC)c2)cc1O	4.79
COc1cc(/C=C\c2ccc(Cl)c(N)c2)cc(OC)c1OC	5.52
COc1cc(/C=C\c2ccn(C)c(=O)c2)cc(OC)c1OC	5.7
CCCOc1ccc(/C=C\c2cc(OC)c(OC)c(OC)c2)cc1	5.22
COc1cc(/C=C\c2ccc(Br)cc2)cc(OC)c1OC	5.51
COc1ccc(NCc2cc(OC)c(OC)c(OC)c2)cc1	4.64
COc1cc(/C=C\c2ccccc2)cc(OC)c1OC	4.44
COc1cc(/C=C\c2ccc(OC(C)=O)cc2)cc(OC)c1OC	4.54
